Test results taken from ChEMBL document CHEMBL1201862, “PubChem BioAssay data set” (2004).
The source made the active and inactive calls.

What was measured:
MEF = assay: SAR analysis of small molecule cytotoxicity of MazEF TA System activators in embryonic fibroblast (MEF) cells. [Related pubchem assays (depositor defined):AID504720, AID504743]; assay type: functional; settings: Mus musculus
[1] = target: T1, Endoribonuclease toxin MazF (Escherichia coli K-12, UniProt P0AE70); assay: substrate-only fluorescence increase artefacts – biochemical, single-stranded RNase substrate, counter-screen for MazEF activator project, dose response (AID 588502); assay type: functional
T1 sequence (P0AE70 whole entry): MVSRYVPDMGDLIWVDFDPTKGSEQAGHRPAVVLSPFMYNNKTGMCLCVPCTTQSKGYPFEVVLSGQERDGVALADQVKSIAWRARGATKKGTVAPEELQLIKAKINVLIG

[2] = target: T1, Endoribonuclease toxin MazF; assay: activation of MazEF endoribonuclease cleavage – biochemical, fluorescence, single-stranded RNA substrate, uHTS hits, dose response (AID 588481); assay type: functional
[3] = target: T1, Endoribonuclease toxin MazF; assay: SAR analysis of small molecule activators of the MazEF TA System via a fluorescence-based single-stranded RNase assay counterscreen. [Related pubchem assays (depositor defined):AID504720, AID504743]; assay type: functional
[4] = target: T1, Endoribonuclease toxin MazF; assay: MazEF toxin-antitoxin RNase activation – biochemical, fluorescence, single-stranded RNA substrate, SAR follow-up (AID 588603); assay type: functional
[5] = target: T2, Microphthalmia-associated transcription factor (Homo sapiens, UniProt O75030); assay: reducers of TRPM1 reporter luminescence, concentration series – cell-based, SK-MEL-5, cherry-picked, set 3, MITF inhibitor project, dose response (AID 493073); assay type: functional;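 also: SK-MEL-5 melanoma cells with luciferase driven by the MITF target TRPM1 promoter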
T2 sequence (O75030 whole entry): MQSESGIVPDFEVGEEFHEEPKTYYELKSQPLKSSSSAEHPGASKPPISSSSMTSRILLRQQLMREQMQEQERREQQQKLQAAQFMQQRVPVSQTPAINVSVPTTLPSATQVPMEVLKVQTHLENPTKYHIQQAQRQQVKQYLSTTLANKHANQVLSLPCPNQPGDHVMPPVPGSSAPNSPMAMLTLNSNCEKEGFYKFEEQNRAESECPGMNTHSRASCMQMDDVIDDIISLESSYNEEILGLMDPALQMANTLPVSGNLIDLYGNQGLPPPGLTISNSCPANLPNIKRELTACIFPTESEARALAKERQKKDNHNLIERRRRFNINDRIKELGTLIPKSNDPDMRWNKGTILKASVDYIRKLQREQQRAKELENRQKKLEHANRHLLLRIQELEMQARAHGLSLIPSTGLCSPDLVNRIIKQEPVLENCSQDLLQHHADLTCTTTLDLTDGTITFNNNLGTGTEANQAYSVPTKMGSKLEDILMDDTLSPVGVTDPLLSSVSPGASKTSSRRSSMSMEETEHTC

[6] = target: T3, V-type proton ATPase subunit c' (Saccharomyces cerevisiae S288c, UniProt P32842); assay: Dose Response of Small Molecules that Regulate V-ATPase Proton Transport in Yeast using pHLuorin, Cherry Pick 2.; assay type: functional; settings: read-out: EC50_MICROM
[7] = target: T3, V-type proton ATPase subunit c'; assay: Dose Response of Small Molecules that Regulate V-ATPase Proton Transport in Yeast using pHLuorin, Powder Set1.; assay type: functional; settings: read-out: EC50_MICROM
[8] = target: Heat shock protein HSP 90-alpha (Homo sapiens, UniProt P07900); assay type: functional, organism-based
[9] = suppression of NO production in INS-1E cells – cell-based, Griess absorbance, dry powder, set 3, dose response (AID 488870); assay type: functional; settings: Rattus norvegicus
INS1 [10] = assay: suppression of NO production in INS-1E cells – cell-based, Griess absorbance, dry powder, set 2, dose response (AID 488868); assay type: functional; settings: Rattus norvegicus
INS1 [11] = assay: suppression of NO production in INS-1E cells – cell-based, Griess absorbance, dry powder, dose response (AID 488866); assay type: functional; settings: Rattus norvegicus
INS1 [12] = assay: beta-cell survival under cytokine stress – INS-1E, ATP luminescence, dry powder, dose response (AID 488844); assay type: functional, cell-based; settings: Rattus norvegicus
Orexin receptor type 2 [13] = target: T4, Orexin receptor type 2 (Homo sapiens, UniProt O43614); assay: Counterscreen assay for antagonists of the orexin 1 receptor (OX1R; HCRTR1): Homogeneous Time Resolved Fluorescence (HTRF)-based cell-based dose response assay for antagonists of the orexin 2 receptor (OX2R; HCRTR2), run by assay provider.; assay type: functional
[14] = microbe, parasite or virus in culture; assay type: functional; settings: Mycobacterium tuberculosis
[15] = target: T5, Orexin/Hypocretin receptor type 1 (Homo sapiens, UniProt O43613); assay: Homogeneous Time Resolved Fluorescence (HTRF)-based cell-based high throughput dose response assay for antagonists of the orexin 1 receptor (OX1R; HCRTR1). [Related pubchem assays (depositor defined):AID434989, AID435008, AID463079, AID485270, AID492963, AID492964, AID492965, AID493232, AID504717, AID504718]; assay type: functional
T5 sequence (O43613 whole entry): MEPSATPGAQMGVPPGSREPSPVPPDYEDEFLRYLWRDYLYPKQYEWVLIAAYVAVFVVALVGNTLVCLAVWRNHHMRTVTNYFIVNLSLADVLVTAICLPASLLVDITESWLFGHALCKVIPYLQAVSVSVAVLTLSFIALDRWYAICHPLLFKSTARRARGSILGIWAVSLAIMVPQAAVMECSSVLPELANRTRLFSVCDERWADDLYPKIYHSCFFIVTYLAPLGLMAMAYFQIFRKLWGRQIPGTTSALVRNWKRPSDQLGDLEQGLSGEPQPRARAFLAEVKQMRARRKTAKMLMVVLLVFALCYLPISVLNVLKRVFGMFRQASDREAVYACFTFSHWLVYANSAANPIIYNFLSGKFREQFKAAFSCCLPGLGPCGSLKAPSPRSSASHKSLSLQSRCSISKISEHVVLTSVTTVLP

[16] = target: T5, Orexin/Hypocretin receptor type 1; assay: Fluorescence-based cell-based high throughput dose response assay for antagonists of the orexin 1 receptor (OX1R; HCRTR1). [Related pubchem assays (depositor defined):AID434989, AID435008, AID463079, AID485270, AID492963, AID492964, AID492965, AID493232, AID504717, AID504718]; assay type: functional
[17] = (§1) Counterscreen for antagonists of the orexin 1 receptor (OX1R; HCRTR1): Fluorescence-based cell-based high throughput dose response assay to identify antagonists of the parental CHO cell line. [Related pubchem assays (depositor defined):AID434989, AID435008, AID463079, AID485270, AID492963, AID492964, AID492965, AID493232, AID504699, AID504701]; assay type: functional
CHO-K1 = assay: as §1, with “Homogeneous time resolved fluorescence (HTRF)-based” for “Fluorescence-based”, “cell-based” for “cell-based high throughput”, “CHO-K1” for “CHO”; assay type: functional; settings: Cricetulus griseus;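 also: potency for inhibition of ATP-stimulated IP1 production as antagonists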
Orexin receptor type 2 [18] = target: T4, Orexin receptor type 2; assay: Counterscreen assay for antagonists of the orexin 1 receptor (OX1R; HCRTR1): Fluorescence-based cell-based dose response assay for antagonists of the orexin 2 receptor (OX2R; HCRTR2), run by assay provider.; assay type: functional
Misshapen-like kinase 1 = Misshapen-like kinase 1 (Homo sapiens, UniProt Q8N4C8); assay type: functional;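 also: kinome panel screen with MINK as the panel member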
[19] = target: Inhibitor of nuclear factor kappa-B kinase subunit alpha (Homo sapiens, UniProt O15111); assay type: functional
[20] = target: Homeodomain-interacting protein kinase 2 (Homo sapiens, UniProt Q9H2X6); assay type: functional;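 also: measured within a kinome-wide kinase profiling panel, HIPK2 being one panel member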
[21] = target: Serine/threonine-protein kinase Chk2 (Homo sapiens, UniProt O96017); assay type: functional;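 also: CHEK2 entry within a kinome-wide screening panel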
[22] = target: Mitogen-activated protein kinase 13 (Homo sapiens, UniProt O15264); assay type: functional
[23] = target: Eukaryotic elongation factor 2 kinase (Homo sapiens, UniProt O00418); assay type: functional
[24] = target: Megakaryocyte-associated tyrosine-protein kinase (Homo sapiens, UniProt P42679); assay type: functional;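 also: affinity measured as one member of a kinase panel (Navigating the Kinome) against MATK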
[25] = target: Inhibitor of nuclear factor kappa-B kinase subunit beta (Homo sapiens, UniProt O14920); assay type: functional
[26] = target: MAP kinase-activated protein kinase 3 (Homo sapiens, UniProt Q16644); assay type: functional;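 also: value comes from a kinome-wide profiling panel in which MAPKAPK3 is one of the panel members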
[27] = target: Serine/threonine-protein kinase Nek4 (Homo sapiens, UniProt P51957); assay type: functional
[28] = target: Protein kinase C gamma type (Homo sapiens, UniProt P05129); assay type: functional
[29] = target: Homeodomain-interacting protein kinase 4 (Homo sapiens, UniProt Q8NE63); assay type: functional
[30] = target: Dual specificity tyrosine-phosphorylation-regulated kinase 4 (Homo sapiens, UniProt Q9NR20); assay type: functional
Dual specificity tyrosine-phosphorylation-regulated kinase 4, sequence (Q9NR20 whole entry): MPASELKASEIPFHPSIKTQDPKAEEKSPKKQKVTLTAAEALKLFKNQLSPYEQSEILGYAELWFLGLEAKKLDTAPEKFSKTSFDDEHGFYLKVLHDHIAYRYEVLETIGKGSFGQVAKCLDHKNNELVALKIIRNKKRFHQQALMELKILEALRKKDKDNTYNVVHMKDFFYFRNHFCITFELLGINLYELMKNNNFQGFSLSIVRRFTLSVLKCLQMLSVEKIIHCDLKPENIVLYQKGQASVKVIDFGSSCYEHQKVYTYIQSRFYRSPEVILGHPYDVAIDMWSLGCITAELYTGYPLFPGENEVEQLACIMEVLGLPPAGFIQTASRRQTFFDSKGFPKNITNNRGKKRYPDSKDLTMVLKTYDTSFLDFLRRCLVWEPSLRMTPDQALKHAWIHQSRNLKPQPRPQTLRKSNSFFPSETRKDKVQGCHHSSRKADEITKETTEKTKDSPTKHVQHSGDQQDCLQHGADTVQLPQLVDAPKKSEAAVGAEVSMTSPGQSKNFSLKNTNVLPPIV

T3 sequence (P32842 whole entry): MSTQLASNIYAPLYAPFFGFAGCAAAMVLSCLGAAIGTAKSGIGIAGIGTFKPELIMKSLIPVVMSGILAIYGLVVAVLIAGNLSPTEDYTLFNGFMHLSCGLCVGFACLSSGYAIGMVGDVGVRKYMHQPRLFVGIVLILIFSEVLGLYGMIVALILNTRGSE
T4 sequence (O43614 whole entry): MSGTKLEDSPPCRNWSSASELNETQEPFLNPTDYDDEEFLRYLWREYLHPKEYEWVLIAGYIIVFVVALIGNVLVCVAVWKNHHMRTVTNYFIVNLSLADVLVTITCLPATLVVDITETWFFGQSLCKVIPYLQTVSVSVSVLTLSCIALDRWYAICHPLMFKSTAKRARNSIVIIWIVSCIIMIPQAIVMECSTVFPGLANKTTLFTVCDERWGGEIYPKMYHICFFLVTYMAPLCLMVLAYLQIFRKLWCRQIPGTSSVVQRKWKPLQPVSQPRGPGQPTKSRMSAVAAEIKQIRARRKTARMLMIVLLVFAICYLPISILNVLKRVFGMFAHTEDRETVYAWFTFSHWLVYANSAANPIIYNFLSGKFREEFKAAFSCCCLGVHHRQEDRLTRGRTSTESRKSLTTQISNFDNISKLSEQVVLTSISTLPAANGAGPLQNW
Mitogen-activated protein kinase 13, sequence (O15264 whole entry): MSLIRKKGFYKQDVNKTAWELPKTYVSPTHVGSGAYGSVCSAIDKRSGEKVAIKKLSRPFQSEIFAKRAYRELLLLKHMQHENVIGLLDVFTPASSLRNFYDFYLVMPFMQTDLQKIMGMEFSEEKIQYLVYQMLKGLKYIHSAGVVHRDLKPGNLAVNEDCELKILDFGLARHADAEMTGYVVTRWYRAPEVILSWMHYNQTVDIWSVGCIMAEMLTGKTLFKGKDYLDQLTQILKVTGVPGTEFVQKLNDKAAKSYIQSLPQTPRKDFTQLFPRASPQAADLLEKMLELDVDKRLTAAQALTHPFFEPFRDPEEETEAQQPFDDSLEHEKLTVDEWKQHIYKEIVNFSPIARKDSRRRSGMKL
Serine/threonine-protein kinase Chk2, sequence (O96017 whole entry): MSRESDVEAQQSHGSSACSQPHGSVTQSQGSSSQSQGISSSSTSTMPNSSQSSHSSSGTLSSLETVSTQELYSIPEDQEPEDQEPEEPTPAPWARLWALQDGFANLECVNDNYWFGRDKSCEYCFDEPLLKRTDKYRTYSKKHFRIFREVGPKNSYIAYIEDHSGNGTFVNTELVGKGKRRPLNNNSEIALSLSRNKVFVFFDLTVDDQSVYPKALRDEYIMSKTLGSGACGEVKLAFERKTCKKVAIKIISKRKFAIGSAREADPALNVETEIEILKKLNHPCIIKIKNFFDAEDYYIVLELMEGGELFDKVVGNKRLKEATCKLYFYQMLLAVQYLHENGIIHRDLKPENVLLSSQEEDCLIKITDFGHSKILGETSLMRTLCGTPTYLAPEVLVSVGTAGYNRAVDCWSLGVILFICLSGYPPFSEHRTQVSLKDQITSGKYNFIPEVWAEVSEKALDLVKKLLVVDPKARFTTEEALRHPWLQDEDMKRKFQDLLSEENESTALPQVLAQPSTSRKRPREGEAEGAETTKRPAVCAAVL
Homeodomain-interacting protein kinase 4, sequence (Q8NE63 whole entry): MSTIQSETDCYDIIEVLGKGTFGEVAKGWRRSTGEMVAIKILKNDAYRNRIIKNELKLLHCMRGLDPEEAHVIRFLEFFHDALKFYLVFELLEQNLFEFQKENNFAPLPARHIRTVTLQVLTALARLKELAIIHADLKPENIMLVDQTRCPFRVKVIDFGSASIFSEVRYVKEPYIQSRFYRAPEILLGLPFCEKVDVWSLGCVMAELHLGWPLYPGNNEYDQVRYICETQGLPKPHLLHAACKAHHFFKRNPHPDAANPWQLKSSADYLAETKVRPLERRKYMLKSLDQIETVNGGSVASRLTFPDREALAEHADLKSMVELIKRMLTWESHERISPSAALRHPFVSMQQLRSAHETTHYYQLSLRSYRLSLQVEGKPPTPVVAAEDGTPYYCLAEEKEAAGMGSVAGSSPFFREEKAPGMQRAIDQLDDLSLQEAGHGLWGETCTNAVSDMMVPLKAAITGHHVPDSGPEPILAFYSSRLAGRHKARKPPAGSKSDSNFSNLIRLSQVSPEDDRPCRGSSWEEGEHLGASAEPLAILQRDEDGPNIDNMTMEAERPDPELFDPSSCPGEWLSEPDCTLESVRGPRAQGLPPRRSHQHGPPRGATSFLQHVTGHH
Eukaryotic elongation factor 2 kinase, sequence (O00418 whole entry): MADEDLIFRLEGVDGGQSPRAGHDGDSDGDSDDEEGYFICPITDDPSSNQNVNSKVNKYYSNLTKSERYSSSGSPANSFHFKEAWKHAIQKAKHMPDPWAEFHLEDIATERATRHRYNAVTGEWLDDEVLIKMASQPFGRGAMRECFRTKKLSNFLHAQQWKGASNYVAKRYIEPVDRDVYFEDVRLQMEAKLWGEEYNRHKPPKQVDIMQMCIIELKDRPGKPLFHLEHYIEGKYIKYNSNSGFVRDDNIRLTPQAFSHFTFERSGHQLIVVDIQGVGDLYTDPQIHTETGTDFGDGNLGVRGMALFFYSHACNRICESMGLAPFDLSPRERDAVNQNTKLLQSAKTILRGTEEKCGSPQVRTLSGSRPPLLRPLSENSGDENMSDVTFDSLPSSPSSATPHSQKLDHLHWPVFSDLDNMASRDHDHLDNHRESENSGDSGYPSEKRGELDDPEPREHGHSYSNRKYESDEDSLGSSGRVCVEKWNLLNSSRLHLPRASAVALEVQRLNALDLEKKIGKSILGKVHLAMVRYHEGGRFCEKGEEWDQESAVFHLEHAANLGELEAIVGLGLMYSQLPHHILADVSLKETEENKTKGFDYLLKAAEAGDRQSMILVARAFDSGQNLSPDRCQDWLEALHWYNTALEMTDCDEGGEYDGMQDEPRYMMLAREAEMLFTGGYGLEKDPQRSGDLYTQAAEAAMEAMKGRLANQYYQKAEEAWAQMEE
Inhibitor of nuclear factor kappa-B kinase subunit alpha, sequence (O15111 whole entry): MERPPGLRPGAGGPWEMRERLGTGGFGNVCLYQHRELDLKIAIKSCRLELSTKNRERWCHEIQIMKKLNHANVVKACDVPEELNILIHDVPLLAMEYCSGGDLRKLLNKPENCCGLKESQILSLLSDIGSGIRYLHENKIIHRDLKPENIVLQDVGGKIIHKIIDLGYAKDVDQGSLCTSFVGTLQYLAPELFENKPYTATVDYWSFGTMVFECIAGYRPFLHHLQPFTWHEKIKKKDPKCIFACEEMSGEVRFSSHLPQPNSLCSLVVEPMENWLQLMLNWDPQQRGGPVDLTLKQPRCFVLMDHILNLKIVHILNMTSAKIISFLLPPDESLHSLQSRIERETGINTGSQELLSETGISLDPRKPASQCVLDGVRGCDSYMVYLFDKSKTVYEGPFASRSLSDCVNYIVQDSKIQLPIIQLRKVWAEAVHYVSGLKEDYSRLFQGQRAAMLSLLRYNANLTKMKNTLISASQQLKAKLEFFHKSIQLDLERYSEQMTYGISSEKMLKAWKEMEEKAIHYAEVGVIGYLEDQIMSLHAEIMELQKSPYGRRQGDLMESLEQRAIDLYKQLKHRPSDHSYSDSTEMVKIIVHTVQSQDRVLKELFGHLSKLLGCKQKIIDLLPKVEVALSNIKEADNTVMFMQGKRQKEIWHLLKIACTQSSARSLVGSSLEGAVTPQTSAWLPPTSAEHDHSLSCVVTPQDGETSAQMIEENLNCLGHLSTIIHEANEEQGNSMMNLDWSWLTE
Inhibitor of nuclear factor kappa-B kinase subunit beta, sequence (O14920 whole entry): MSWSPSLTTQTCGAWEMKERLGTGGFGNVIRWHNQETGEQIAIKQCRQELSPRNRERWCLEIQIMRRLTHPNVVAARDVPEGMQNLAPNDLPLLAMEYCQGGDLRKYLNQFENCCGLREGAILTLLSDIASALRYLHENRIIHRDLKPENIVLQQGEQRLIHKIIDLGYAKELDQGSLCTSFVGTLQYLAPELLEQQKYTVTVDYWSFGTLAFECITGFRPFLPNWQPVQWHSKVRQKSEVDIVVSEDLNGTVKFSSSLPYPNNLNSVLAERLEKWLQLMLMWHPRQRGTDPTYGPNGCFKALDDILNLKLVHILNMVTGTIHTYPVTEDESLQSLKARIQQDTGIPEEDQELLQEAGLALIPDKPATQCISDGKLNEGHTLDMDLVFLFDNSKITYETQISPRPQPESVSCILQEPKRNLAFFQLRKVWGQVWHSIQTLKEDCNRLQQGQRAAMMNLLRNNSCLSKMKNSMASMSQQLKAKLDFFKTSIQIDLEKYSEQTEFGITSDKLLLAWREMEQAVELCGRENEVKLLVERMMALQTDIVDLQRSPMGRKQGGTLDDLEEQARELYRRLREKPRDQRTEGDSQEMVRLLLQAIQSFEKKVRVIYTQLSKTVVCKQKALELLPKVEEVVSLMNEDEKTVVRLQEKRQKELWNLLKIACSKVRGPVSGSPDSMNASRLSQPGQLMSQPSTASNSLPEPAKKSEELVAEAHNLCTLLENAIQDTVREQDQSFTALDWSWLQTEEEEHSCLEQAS

SMILES: CCC(C)NC(=O)c1ccc(CNS(=O)(=O)c2ccc3c(c2)C(C)(C)C(=O)N3C)cc1 (stereo not drawn)
- CC50 (MEF): > 99 µM (inactive)
- EC50 [1]: > 99 µM (inactive)
- EC50 [2]: 15.9 µM (active)
- EC50 [3]: > 99 µM (inactive)
- EC50 [4]: 21.8 µM (inactive)

SMILES: O=C(Nc1ccccc1N1CCOCC1)c1ccc([N+](=O)[O-])o1
- AC50 [5]: 11.9 µM (active)
- EC50 [6]: 25.3 µM (active)
- EC50 [7]: 4.18 µM (active)
- AC50 [8]: 3.63 µM (active)

SMILES: COc1ccc(S(=O)(=O)N(C)C[C@@H]2Oc3c(NC(=O)Nc4cccc5ccccc45)cccc3C(=O)N([C@@H](C)CO)C[C@H]2C)c(OC)c1
- AC50 [9]: 27.7 µM (active)
- AC50 (INS1 [10]): > 260 µM (inactive)
- AC50 (INS1 [11]): 74.1 µM (active)
- AC50 (INS1 [12]): 45.5 µM (active)

SMILES: OCC1(Cc2cccc(Cl)c2)CCCN(Cc2ccc3cc(F)ccc3n2)C1 (stereo not drawn)
- IC50 (Orexin receptor type 2 [13]): 25.1 µM (inactive)
- CC50 [14]: > 40 µM (active)
- IC50 [15]: 6.33 µM (active)
- IC50 [16]: > 5.53 µM (active)
- IC50 [17]: 31.4 µM (inactive)
- IC50 (CHO-K1): > 66.2 µM (inactive)
- IC50 (Orexin receptor type 2 [18]): 6.7 µM (active)

SMILES: CCC(CO)Nc1nc(NCc2ccccc2)c2ncn(C(C)C)c2n1 (stereo not drawn) [(RS)-ROSCOVITINE]
- Ki (Misshapen-like kinase 1): > 7.94 µM (inactive)
- Ki [19]: > 3.98 µM (inactive)
- Ki [20]: > 3.16 µM (inactive)
- Ki [21]: > 5.01 µM (inactive)
- Ki [22]: > 7.94 µM (inactive)
- Ki [23]: > 3.98 µM (inactive)
- Ki [24]: > 2 µM (inactive)
- Ki [25]: > 3.16 µM (inactive)
- Ki [26]: > 10 µM (inactive)
- Ki [27]: > 6.31 µM (inactive)
- Ki [28]: > 7.94 µM (inactive)
- Ki [29]: 1.58 µM (active)
- Ki [30]: > 7.94 µM (inactive)
